Legend:
[1] = tested on: cholesterol biosynthesis in Hep G2 cells; experiment: Test B-1: Inhibition of cholesterol biosynthesis in culture cells (Hep G2); type: cell-based; conditions: for inhibition at 1 µM: 1.0 × 10^-6 mol/l, Hep G2 cells, read-out: Inhibitory activities at a concentration of 1.0 × 10^-6 mol/l by Test B-1 (Relative activities); for Relative activities by Test B-1: relative to CS-514 = 1 (Test B-1)
Experimental: Hep G2 cells at over 5th passage were seeded to 12 well plates and incubated with Dulbecco's modified Eagle (DME) medium containing 10% of fetal bovine serum (FBS) at 37° C., 5% CO2 until cells were confluent for about 7 days. Cells were exposed to the DME medium contaiing 5% of lipoprotein deficient serum (LpDS) prepared by ultracentrifugation method for over 24 hours. Medium was changed to 0.5 ml of fresh 5% LpDS containing DME before assay and 10 μl of test compound solution dissolved in water or DMSO were added. 0.2 μCi of [2-^14 C]sodium acetate (20 μl ) was added at 0 hr(B-1) or 4 hrs(B-2) after addition of compounds. After 4 hrs further incubation with [2-^14 C]sodium acetate, medium was removed and cells were washed with phosphate buffered saline (PBS) chilled at 4° C. Cells were scraped with rubber policeman and collected to tubes with PBS and digested with 0.2 ml of 0.5 N KOH at 37° C. Aliquot of digestion was used for protein analysis and remaining was saponified with 1 ml of 15% EtOH-KOH at 75° C. for 1 hour. Nonsaponifiable lipids were extracted with petroleum ether and ^14 C radioactivity was counted. Counts were revised by cell protein and indicated with DPM/mg protein. Inhibitory activity of compounds was indicated with IC50. With respect to the compounds of the present invention, the inhibitory activities against the cholesterol biosynthesis in which HMG-CoA reductase serves as a rate limiting enzyme, were measured by the above Test A and B.

cholesterol biosynthesis [2] = experiment: Test C: Inhibition of cholesterol biosynthesis in vivo; parameters: species or system Male Sprague-Dawley rats; conditions: 0.2 mg/kg, oral administration, rats
Experimental: Male Sprague-Dawley rats weighing about 150 g were fed normal Purina chow diet and water ad libitum, and exposed to 12 hours light/12 hours dark lighting pattern (2:00 PM-2:00 AM dark) prior to use for in vivo inhibition test of cholesterol biosynthesis. Animals were separated groups consisting of five rats as to be average mean body weight in each groups. Test compounds at dosage of 0.02-0.2 mg/kg body weight (0.4 ml/100 g body weight), were dissolved in water or suspended in 0.5% methyl cellulose and orally administered at 2-3 hours before mid-dark (8:00 PM), while cholesterol biosynthesis reaches to maximum in rats. As control, rats were orally administered only water or vehicle. At 90 minutes after sample administration, rats were injected intraperitoneally with 10 μCi of [2-^14 C]sodium acetate at volume of 0.2 ml per one. 2 Hours later, blood samples were obtained and serum were separated immediately. Total lipids were extracted according to the method of Folch et al. and saponified with EtOH-KOH. Nonsaponifiable lipids were extracted with petroleum ether and radio activity incorporated into nonsaponifiable lipids was counted. Inhibitory activity was indicated as percent decrease of counts in testing groups (DPM/2 ml serum/2 hours) from that in control group.

cholesterol biosynthesis [3] = experiment: Test A: Inhibition of cholesterol biosynthesis from acetate in vitro; type: biochemical, male Wistar rat; conditions: relative to CS-514 = 1 (Test A)
Experimental: Enzyme solution was prepared from liver of male Wistar rat billialy connulated and discharged bile for over 24 hours. Liver was cut out at mid-dark and microsome and supernatant fraction which was precipitable with 40-80% of solution of ammonium sulfate (sup fraction) were prepared from liver homogenate according to the modified method of Knauss et. al.; Kuroda, M., et. al., Biochim. Biophys. Acta, 489, 119 (1977). For assay of cholesterol biosynthesis, microsome (0.1 mg protein) and sup fraction (1.0 mg protein) were incubated for 2 hours at 37° C. in 200 μl of the reaction mixture containing ATP; 1 mM, Glutathione; 6 mM, Glucose-1-phosphate; 10 mM, NAD; 0.25 mM, NADP; 0.25 mM, CoA; 0.04 mM and 0.2 mM [2-^14 C]sodium acetate (0.2 μCi) with 4 μl of test compound solution dissolved in water or dimethyl sulfoxide. To stop reaction and saponify, 1 ml of 15% EtOH-KOH was added to the reactions and heated at 75° C. for 1 hour. Nonsaponifiable, lipids were extracted with petroleum ether and incorporated ^14 C radioactivity was counted. Inhibitory activity of compounds was indicated with IC50.
With respect to the compounds of the present invention, the inhibitory activities against the cholesterol biosynthesis in which HMG-CoA reductase serves as a rate limiting enzyme, were measured by the above Test A and B. The results are shown in Tables 2, 3-1 and 3-2.
The relative activities of the compounds of the present invention based on the activities of CS-514 by Test A being evaluated to be 1, are shown in Table 2.

Test D: Acute toxicity = conditions: mouse, in vivo, 1000 mg/kg; 1,000 mg/kg oral, 0.5% CMC suspension, ICR male mice, after seven days
Experimental: A 0.5% CMC suspension of a test compound was orally administered to ICR male mice (group of three mice). The acute toxicity was determined based on the mortality after seven days. With compound I 5-4 and I-5-6 of the present ivnention, the mortality was 0% even when they were orally administered in an amount of 1,000 mg/kg, respectively.

CCC(C)C(=O)OC1CC(O)C=C2C=CC(C)C(CCC(O)CC(O)CC(=O)O)C21 (stereo not shown) [CS-514, reference compound]
IC50 ([1]; Homo sapiens, HepG2, Test B-1, Hep G2 cells, [2-14C]sodium acetate added at 0 hr, read-out: IC50 in Test B1): 3.66 µM | percent decrease of counts relative to control group (cholesterol biosynthesis [2]): 34%

CCOC(=O)CC(O)CC(O)/C=C/c1c(C(C)C)nc2cc(C)nn2c1-c1ccc(F)cc1 (stereo not shown) [Compound I-1-1, Ethyl (E)-7-[7'-(4"-fluorophenyl)-2'-methyl-5'-(1"-methylethyl)pyrazolo[1,5-a]pyrimidin-6'-yl]-3,5-dihydroxyhept-6-enoate]
inhibition at 1 µM ([1]; Homo sapiens, HepG2): 67.3% | Relative activities by Test B-1 [1]: 17.8

CCOC(=O)CC(O)CC(O)/C=C/c1c(C(C)C)nc2cc(-c3ccccc3)nn2c1-c1ccc(F)cc1 (stereo not shown) [Compound I-1-3]
inhibition at 1 µM ([1]; Homo sapiens, HepG2): 66.1% | Relative activities by Test B-1 [1]: 29.5

Cc1cc2nc(C(C)C)c(/C=C/C(O)CC(O)CC(=O)O)c(-c3ccc(F)cc3)n2n1 (stereo not shown) [Compound I-5-1, Sodium (E)-7-[7'-(4"-fluorophenyl)-2'-methyl-5'-(1"-methylethyl)pyrazolo[1,5-a]pyrimidin-6'-yl]-3,5-dihydroxyhept-6-enoate]
Relative activities by Test A (cholesterol biosynthesis [3]): 0.64 | inhibition at 1 µM ([1]; Homo sapiens, HepG2): 53.9% | percent decrease of counts relative to control group (cholesterol biosynthesis [2]): 50%

CC(C)c1nc2cc(C(C)(C)C)nn2c(-c2ccc(F)cc2)c1/C=C/C(O)CC(O)CC(=O)O (stereo not shown) [Compound I-5-2]
Relative activities by Test A (cholesterol biosynthesis [3]): 0.09 | inhibition at 1 µM ([1]; Homo sapiens, HepG2): 44.6%

CC(C)c1nc2cc(-c3ccccc3)nn2c(-c2ccc(F)cc2)c1/C=C/C(O)CC(O)CC(=O)O (stereo not shown) [Compound I-5-3]
Relative activities by Test A (cholesterol biosynthesis [3]): 0.27 | inhibition at 1 µM ([1]; Homo sapiens, HepG2): 66.3% | Relative activities by Test B-1 [1]: 26.0

Cc1cc2nc(C3CC3)c(/C=C/C(O)CC(O)CC(=O)O)c(-c3ccc(F)cc3)n2n1 (stereo not shown) [Compound I-5-4]
Relative activities by Test A (cholesterol biosynthesis [3]): 0.39 | inhibition at 1 µM ([1]; Homo sapiens, HepG2): 57.1% | mortality at 168 h (Test D: Acute toxicity): 0%

Cc1nn2c(-c3ccc(F)cc3)c(/C=C/C(O)CC(O)CC(=O)O)c(C3CC3)nc2c1C (stereo not shown) [Compound I-5-5]
Relative activities by Test A (cholesterol biosynthesis [3]): 0.29 | inhibition at 1 µM ([1]; Homo sapiens, HepG2): 55.3%

Cc1nn2c(-c3ccc(F)cc3)c(/C=C/C(O)CC(O)CC(=O)O)c(C3CC3)nc2c1-c1ccccc1 (stereo not shown) [Compound I-5-6]
Relative activities by Test A (cholesterol biosynthesis [3]): 0.75 | inhibition at 1 µM ([1]; Homo sapiens, HepG2): 58% | mortality at 168 h (Test D: Acute toxicity): 0%

CC(C)c1nc2cc(-c3ccco3)nn2c(-c2ccc(F)cc2)c1/C=C/C(O)CC(O)CC(=O)O (stereo not shown) [Compound I-5-7]
Relative activities by Test A (cholesterol biosynthesis [3]): 0.20

CC(C)c1cc2nc(C3CC3)c(/C=C/C(O)CC(O)CC(=O)O)c(-c3ccc(F)cc3)n2n1 (stereo not shown) [Compound I-5-8]
Relative activities by Test A (cholesterol biosynthesis [3]): 0.09

CC(C)c1nc2c3c(nn2c(-c2ccc(F)cc2)c1/C=C/C(O)CC(O)CC(=O)O)CCCC3 (stereo not shown) [Compound I-5-9]
Relative activities by Test A (cholesterol biosynthesis [3]): 0.13
